The text below walks through data of US9518052B2, “Pyrazolopyridines and pyrazolopyrimidines” (Pfizer Inc., priority 2014, dated 2016).

Molecules are shown by their SMILES. Where a name gives a salt, the structure may show the parent alone.

Format in all cases: biochemical
Common to all, as to conditions: Caliper assay at 1 mM ATP

Test [1] concerns the target JAK3 (Homo sapiens (Human), UniProt P52333). The experiment in a line: JAK Caliper Enzyme Assay at 1 mM ATP (JAK3).
For test [2], the target named is JAK1 (Homo sapiens (Human), UniProt P23458). The experiment in a line: JAK Caliper Enzyme Assay at 1 mM ATP (JAK1).
JAK1, sequence (P23458 whole entry, species assumed): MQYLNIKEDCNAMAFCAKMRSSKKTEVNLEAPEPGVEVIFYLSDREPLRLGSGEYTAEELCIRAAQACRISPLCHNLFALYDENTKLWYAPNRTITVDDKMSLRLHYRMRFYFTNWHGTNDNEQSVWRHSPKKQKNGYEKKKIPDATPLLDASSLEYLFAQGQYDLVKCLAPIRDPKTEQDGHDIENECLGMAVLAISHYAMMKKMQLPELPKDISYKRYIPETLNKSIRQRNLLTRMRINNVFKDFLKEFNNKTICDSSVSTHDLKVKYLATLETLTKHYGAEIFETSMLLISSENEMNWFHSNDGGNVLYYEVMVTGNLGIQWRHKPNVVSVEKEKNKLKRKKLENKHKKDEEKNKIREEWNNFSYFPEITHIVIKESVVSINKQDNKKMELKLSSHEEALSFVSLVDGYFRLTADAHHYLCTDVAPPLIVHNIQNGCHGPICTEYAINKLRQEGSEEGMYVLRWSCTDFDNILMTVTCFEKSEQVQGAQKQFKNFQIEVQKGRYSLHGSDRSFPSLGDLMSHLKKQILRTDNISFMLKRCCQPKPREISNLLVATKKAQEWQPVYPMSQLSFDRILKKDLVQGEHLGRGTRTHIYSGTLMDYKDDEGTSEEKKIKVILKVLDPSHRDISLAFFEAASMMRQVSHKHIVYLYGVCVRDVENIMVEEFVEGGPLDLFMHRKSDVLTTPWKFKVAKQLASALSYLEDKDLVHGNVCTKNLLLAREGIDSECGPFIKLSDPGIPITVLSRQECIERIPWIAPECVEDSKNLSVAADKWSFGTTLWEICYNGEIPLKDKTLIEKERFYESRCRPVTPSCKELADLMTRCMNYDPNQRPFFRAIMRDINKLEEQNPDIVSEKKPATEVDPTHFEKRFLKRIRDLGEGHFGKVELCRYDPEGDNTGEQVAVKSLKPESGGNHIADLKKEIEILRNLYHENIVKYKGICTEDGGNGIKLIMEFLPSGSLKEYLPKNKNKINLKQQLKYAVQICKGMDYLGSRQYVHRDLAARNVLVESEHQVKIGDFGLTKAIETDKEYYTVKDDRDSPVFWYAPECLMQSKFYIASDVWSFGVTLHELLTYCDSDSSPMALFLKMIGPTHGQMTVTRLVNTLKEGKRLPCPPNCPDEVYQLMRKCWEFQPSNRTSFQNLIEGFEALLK
Test [3] addresses TYK2 (Homo sapiens (Human), UniProt P29597). The experiment in a line: JAK Caliper Enzyme Assay at 1 mM ATP (TYK2).
Test [4] addresses JAK2 (Homo sapiens (Human), UniProt O60674). The experiment in a line: JAK Caliper Enzyme Assay at 1 mM ATP (JAK2).

JAK2, sequence (O60674 whole entry, species assumed): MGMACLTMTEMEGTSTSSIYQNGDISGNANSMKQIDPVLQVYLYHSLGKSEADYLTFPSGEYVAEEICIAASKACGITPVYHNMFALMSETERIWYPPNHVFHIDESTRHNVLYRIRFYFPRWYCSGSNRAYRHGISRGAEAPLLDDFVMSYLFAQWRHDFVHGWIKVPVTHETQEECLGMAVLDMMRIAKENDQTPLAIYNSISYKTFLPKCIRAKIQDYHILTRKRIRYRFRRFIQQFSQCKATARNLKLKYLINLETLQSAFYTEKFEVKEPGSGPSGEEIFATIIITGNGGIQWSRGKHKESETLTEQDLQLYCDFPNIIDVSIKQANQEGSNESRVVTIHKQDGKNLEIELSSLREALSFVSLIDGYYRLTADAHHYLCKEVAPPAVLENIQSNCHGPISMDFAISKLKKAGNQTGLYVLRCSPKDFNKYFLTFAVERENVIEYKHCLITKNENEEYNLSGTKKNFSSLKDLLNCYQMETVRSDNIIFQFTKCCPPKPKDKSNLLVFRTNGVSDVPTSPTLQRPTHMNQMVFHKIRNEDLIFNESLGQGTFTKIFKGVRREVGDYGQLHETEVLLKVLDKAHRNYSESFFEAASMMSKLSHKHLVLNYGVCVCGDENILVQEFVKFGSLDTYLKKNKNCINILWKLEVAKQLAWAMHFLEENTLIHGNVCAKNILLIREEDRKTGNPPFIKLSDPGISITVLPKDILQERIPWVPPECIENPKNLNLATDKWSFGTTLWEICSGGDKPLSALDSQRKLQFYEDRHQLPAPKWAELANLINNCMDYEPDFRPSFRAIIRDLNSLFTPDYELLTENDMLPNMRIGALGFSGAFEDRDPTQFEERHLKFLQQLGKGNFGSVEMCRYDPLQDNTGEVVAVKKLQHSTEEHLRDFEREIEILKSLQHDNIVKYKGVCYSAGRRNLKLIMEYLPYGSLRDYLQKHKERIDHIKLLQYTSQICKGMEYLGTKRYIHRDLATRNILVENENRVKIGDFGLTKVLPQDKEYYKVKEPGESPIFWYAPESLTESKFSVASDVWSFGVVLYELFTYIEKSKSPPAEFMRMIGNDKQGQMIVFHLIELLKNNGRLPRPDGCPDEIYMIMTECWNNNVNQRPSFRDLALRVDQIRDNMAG
JAK3, sequence (P52333 whole entry, species assumed): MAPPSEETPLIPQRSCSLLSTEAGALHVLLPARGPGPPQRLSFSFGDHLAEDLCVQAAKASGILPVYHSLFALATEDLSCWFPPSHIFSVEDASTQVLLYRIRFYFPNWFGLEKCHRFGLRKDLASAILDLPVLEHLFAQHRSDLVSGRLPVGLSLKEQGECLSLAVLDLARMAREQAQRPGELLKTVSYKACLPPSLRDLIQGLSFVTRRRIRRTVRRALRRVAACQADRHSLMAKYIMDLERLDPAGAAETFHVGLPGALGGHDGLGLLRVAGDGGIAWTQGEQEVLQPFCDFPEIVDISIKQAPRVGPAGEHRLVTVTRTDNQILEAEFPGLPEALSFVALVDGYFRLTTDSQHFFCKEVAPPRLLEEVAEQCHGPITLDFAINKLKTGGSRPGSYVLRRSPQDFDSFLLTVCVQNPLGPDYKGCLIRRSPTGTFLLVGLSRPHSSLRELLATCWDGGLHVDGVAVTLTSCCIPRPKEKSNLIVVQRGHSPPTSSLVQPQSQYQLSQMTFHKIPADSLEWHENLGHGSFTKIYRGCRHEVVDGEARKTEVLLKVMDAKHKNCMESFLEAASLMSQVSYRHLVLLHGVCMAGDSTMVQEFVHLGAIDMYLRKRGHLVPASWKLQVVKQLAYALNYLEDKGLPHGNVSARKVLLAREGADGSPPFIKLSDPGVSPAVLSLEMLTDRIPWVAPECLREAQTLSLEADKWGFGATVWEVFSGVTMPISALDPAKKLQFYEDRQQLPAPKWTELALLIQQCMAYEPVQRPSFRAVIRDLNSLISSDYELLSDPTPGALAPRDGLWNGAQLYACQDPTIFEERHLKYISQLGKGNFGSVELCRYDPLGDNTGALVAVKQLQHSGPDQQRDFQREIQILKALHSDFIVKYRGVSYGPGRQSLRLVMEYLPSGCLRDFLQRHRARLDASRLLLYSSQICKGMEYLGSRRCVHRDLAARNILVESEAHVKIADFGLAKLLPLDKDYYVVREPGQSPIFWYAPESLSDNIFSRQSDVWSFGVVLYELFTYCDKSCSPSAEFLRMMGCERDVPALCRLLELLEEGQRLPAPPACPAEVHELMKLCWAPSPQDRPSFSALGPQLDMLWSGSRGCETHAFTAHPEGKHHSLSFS
TYK2, sequence (P29597 whole entry, species assumed): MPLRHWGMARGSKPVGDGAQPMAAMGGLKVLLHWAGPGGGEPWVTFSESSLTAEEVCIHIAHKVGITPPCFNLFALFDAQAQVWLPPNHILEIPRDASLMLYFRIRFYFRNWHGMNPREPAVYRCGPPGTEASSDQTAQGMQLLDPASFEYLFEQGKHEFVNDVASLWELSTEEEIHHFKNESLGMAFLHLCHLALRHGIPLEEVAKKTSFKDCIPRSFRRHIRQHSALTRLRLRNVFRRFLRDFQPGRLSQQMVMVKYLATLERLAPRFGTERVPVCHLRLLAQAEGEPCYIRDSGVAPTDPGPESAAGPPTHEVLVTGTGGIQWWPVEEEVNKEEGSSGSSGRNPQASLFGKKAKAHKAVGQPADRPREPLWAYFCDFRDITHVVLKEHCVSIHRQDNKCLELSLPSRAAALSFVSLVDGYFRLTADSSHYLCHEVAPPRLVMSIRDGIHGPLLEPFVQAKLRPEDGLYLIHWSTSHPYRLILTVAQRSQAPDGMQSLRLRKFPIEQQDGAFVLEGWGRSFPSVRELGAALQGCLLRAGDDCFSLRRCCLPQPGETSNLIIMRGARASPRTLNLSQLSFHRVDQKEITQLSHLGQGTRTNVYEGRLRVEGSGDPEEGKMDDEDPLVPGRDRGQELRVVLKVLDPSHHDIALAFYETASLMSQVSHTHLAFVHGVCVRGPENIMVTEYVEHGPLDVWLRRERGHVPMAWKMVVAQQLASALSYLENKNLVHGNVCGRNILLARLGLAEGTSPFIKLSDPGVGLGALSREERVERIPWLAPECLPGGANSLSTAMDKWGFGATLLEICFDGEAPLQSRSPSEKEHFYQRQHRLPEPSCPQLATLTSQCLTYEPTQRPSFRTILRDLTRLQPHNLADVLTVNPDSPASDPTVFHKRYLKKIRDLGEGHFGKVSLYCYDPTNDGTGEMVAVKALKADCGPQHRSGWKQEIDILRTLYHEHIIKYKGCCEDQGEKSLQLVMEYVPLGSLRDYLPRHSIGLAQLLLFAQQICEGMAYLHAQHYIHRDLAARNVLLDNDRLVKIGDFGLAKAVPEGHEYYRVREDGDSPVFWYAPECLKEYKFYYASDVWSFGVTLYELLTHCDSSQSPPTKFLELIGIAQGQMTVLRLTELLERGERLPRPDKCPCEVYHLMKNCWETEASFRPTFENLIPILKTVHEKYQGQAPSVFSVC

As usually defined, the IC50 is the midpoint of a concentration-inhibition curve. Higher therefore signals lower potency. Consider `CCN(c1nccnc1CNc1nc(-c2cc(F)c(O)cc2CC(F)(F)F)cc2[nH]nc(C(=O)NC)c12)S(C)(=O)=O` [Example 45, 4-[({3-[ethyl(methyl-sulfonyl)-amino]pyrazin-2-yl}methyl)amino]-6-[5-fluoro-4-hydroxy-2-(2,2,2-trifluoroethyl)phenyl]-N-methyl-1H-pyrazolo[4,3-c]pyridine-3-carboxamide], for which the IC50 in test [1] was determined as 68.7 nM; in test [2], 4 nM; in test [3] it was 148 nM; in test [4], 18.9 nM.

Consider `Cc1ccc(NC(=O)c2n[nH]c3cc(-c4cc(F)c(O)cc4CC(F)(F)F)nc(NCc4ccccc4N(C)S(C)(=O)=O)c23)cn1` [Example 76, 6-[5-Fluoro-4-hydroxy-2-(2,2,2-trifluoroethyl)phenyl]-4-({2-[methyl(methylsulfonyl)amino]-benzyl}amino)-N-(6-methylpyridin-3-yl)-1H-pyrazolo[4,3-c]pyridine-3-carboxamide], for which the IC50 in test [1] is 475 nM; in test [2], 29.6 nM; in test [3] it was 316 nM; in test [4] it was 113 nM.

As for `CCc1cc(O)c(F)cc1-c1cc2[nH]ncc2c(NCc2ccccc2N(CCO)S(C)(=O)=O)n1` [Example 147, N-[2-({[6-(2-Ethyl-5-fluoro-4-hydroxyphenyl)-1H-pyrazolo[4,3-c]pyridin-4-yl]amino}methyl)phenyl]-N-(2-hydroxyethyl)methanesulfonamide], the IC50 in test [1] amounted to 18.5 nM; in test [2] it was 1.1 nM; in test [3], 49.4 nM; in test [4] it was 4.7 nM.

With `CCN(c1ncc(C)cc1CNc1nc(-c2cc(F)c(O)cc2CC(F)(F)F)cc2[nH]nc(C(N)=O)c12)S(C)(=O)=O` [Example 87, 4-[({2-[ethyl(methylsulfonyl)amino]-5-methylpyridin-3-yl}methyl)amino]-6-[5-fluoro-4-hydroxy-2-(2,2,2-trifluoroethyl)phenyl]-1H-pyrazolo[4,3-c]pyridine-3-carboxamide], the IC50 in test [1] is 133 nM; in test [2], 30.6 nM; in test [3] it was 2490 nM; in test [4], 87.8 nM.

`CCc1cc(O)c(F)cc1-c1cc2[nH]ncc2c(N(C)Cc2ccccc2N(CC)S(C)(=O)=O)n1` [Example 145, N-Ethyl-N-[2-({[6-(2-ethyl-5-fluoro-4-hydroxyphenyl)-1H-pyrazolo[4,3-c]pyridin-4-yl](methyl)amino}methyl)phenyl]methanesulfonamide hydrochloride]: the IC50 in test [1] is 16.2 nM; in test [2], 1 nM; in test [3], 15.8 nM; in test [4], 4.5 nM.

Turning to `CCc1cc(O)c(F)cc1-c1cc2[nH]nc(C(=O)NC)c2c(NCc2cc(F)ccc2N(C)S(C)(=O)=O)n1` [Example 7, 6-(2-ethyl-5-fluoro-4-hydroxyphenyl)-4-({5-fluoro-2-[methyl(methyl-sulfonyl)amino]benzyl}amino)-N-methyl-1H-pyrazolo[4,3-c]pyridine-3-carboxamide], the IC50 stood at 49 nM in test [1], 1.7 nM in test [2], 6.5 nM in test [3] and 9.2 nM in test [4].

In the case of `CNC(=O)c1n[nH]c2cc(-c3cc(F)c(O)cc3CC(F)(F)F)nc(NCc3cc(Cl)ccc3N(C)S(C)(=O)=O)c12` [Example 15, 4-({5-chloro-2-[methyl(methyl-sulfonyl)amino]benzyl}amino)-6-[5-fluoro-4-hydroxy-2-(2,2,2-trifluoroethyl)phenyl]-N-methyl-1H-pyrazolo[4,3-c]pyridine-3-carboxamide], the IC50 came to 342 nM in test [1], 13.6 nM in test [2], 618 nM in test [3] and 55 nM in test [4].
